Results as given in patent publication EP1137632B1, “THIOUREA INHIBITORS OF HERPES VIRUSES” (Wyeth, priority 1998, dated 2000).
Converted amounts (≈) assume the structure as drawn. Like-named read-outs stand apart in the source and are kept apart here.

What was measured:
HSV-1 = experiment: HSV antiviral (ELISA) assay in Vero cells; assay type: cell-based, herpes simplex virus type 1; conditions: read-out: IC50 (ug/ml) HSV
Description: HSV antiviral (ELISA) assay
Vero cells (ATCC #CCL-81) are plated on 96-well tissue culture plates at 3.5x10^4 cells per 100µl tissue culture DMEM (Dulbecco's modified Eagle media) supplemented with 2% fetal bovine serum (FBS) in each well. After overnight incubation @ 37°C (in 5% CO2) and 30 minutes prior to infection with HSV-1 (multiplicity of infection equal to 0.006), cells are either untreated, or treated with test compound (multiple concentrations) or reference standard drug control. After approximately 24 hours post-infection incubation @ 37°C (in 5% CO2), cells are fixed for ELISA assay. The primary antibody is murine anti-HSV glycoprotein D monoclonal primary antibody and the secondary antibody is goat anti-mouse IgG linked to β-galactosidase. Thus the extent of viral replication is determined by assessing β-galactosidase activity by quantifying the generation of the 4-methyl umbelliferone fluorescent cleavage product after addition of the methyl umbelliferyl-β-D-galactoside (Sigma #M1633) substrate on a microfluorimeter (365nm for excitation and 450nm for emission). Antiviral activity (IC50) of the test compound is determined by comparing the flourescence obtained in absence of compound to that obtained in the presence of compound.

[1] = test system: HCMV recombinant mutant virus; experiment: microbe, parasite or virus in culture; assay type: cell-based, human cytomegalovirus; conditions: Human betaherpesvirus 5, read-out: IC50 (ug/ml) HCMV
Excerpt: Microtiter plate assay. Ninety-six well plate cultures of human foreskin fibroblasts are infected in the presence of inhibitor compound with a HCMV recombinant mutant virus whose genome contains the prokaryotic beta-glucuronidase gene (Jefferson, R. A., S. M. Burgess, and D. Hirsh. 1986. Beta-glucuronidase from Escherichia coli as a gene fusion marker. Proc. Natl. Acad. Sci. USA 83:8447-8451) whose expression is controlled by a viral promoter. An example of such a virus is RV145 (Jones, T. R., V. P. Muzithras, and Y. Gluzman. 1991. Replacement mutagenesis of the human cytomegalovirus genome: US10 and US11 gene products are nonessential. J. Virol. 65:5860-5872). Since it is under the control of a viral promoter, beta-glucuronidase expression is an indirect indicator of growth and replication of HCMV in this assay. At 96 hours post-infection, the infected cell lysates are prepared (using 50mM sodium phosphate [pH7.0] containing 0.1 % Triton X-100 and 0.1% sarkosyl) and assayed for beta-glucuronidase activity using a substrate for the enzyme which when cleaved yields either a product which can be measured colorimetrically in a spectrophotometer or fluorescently in a microfluorimeter. Examples of such substrates are p-nitrophenyl-beta-D-glucuronide and methylumbelliferylglucuronide, respectively. The presence of an antiviral compound is indicated by the reduced expression of the HCMV genome resident beta-glucuronidase gene, compared to the absence of inhibitor. […] Data from this assay generated using varying amounts of inhibitor compound is also used to estimate the IC50 of an inhibitor compound.

VZV strain Ellen = experiment: VZV antiviral (ELISA) assay in human foreskin fibroblast cells; assay type: cell-based, varicella-zoster virus
Description: VZV antiviral (ELISA) assay
For the generation of stock VZV to be used in the assay, VZV strain Ellen (ATCC #VR-1367) is used to infect human foreskin fibroblast (HFF) cells at low multiplicity (less than 0.1) and incubated overnight at 37°C in 5% CO2. After the overnight incubation, the mixture of uninfected and VZV-infected HFF infected cells are then harvested and added to each well of 96-well plates (3.5x10^4 cells in 100 µl DMEM supplemented with 2% FBS) which contain test compound or the reference standard drug control (in 100µl DMEM supplemented with 2% FBS per well). These cells are incubated for three days at 37°C in 5% CO2, then fixed for ELISA assay. The primary antibody is murine anti-VZV glycoprotein II monoclonal antibody (Applied Biosystems, Inc. #13-145-100) and the secondary antibody is goat anti-mouse IgG linked to β-galactosidase. Thus the extent of viral replication is determined by assessing β-galactosidase activity by quantifying the generation of the 4-methyl umbelliferone fluorescent cleavage product after addition of the methyl umbelliferyl-β-D-galactoside (Sigma #M1633) substrate on a microfluorimeter (365nm for excitation and 450nm for emission). Antiviral activity (IC50) of the test compound is determined by comparing the flourescence obtained in absence of compound to that obtained in the presence of compound.

[2] = Human alphaherpesvirus 1, HSV-1 in Vero cells
[3] = Human alphaherpesvirus 3, Fibroblast; read-out: % inhibition 10 ug/ml VZV
[4] = Human alphaherpesvirus 3; VZV strain Ellen in HFF cells; read-out: IC50 (ug/ml) VZV
[5] = Human alphaherpesvirus 3, Fibroblast, read-out: % inhibition 10 ug/ml VZV
[6] = Human alphaherpesvirus 3, HFF, read-out: IC50 (ug/ml) VZV

SMILES | IC50 (HSV-1; [2]) [µg/mL] | IC50 [1] [µg/mL] | inhibition at 10 µg/mL (VZV strain Ellen; [3]) [%] | IC50 (VZV strain Ellen; [4]) [µg/mL] | IC50 (HSV-1; Human alphaherpesvirus 1, Vero) [µg/mL] | inhibition at 10 µg/mL (VZV strain Ellen; [5]) [%] | IC50 (VZV strain Ellen; [6]) [µg/mL]
CC(=O)Nc1ccc(NC(=S)Nc2ccc(NC(=O)c3ccc4ccccc4c3O)c(Cl)c2)cc1 [Example 204, 1-Hydroxy-naphthalene-2-carboxylic acid {4-[3-(4-acetylamino-phenyl)-thioureido]-2-chloro-phenyl}-amide] | 4 (≈ 7.92 µM) | 8 (≈ 15.8 µM) | 41 | > 10 | – | – | –
COc1cc(OC)c(NC(=S)Nc2cc(OC)c(NC(=O)c3ccccc3F)cc2OC)cc1Cl [Example 260, N-{4-[3-(5-Chloro-2,4-dimethoxy-phenyl)-thioureido]-2,5-dimethoxy-phenyl}-2-fluoro-benzamide] | – | > 10 | – | – | > 10 | 18 | 7 (≈ 13.5 µM)
COc1cc(OC)c(NC(=S)Nc2ccc(NC(=O)c3ccccc3F)c(C#N)c2)cc1Cl [Example 277, N-{4-[3-(5-Chloro-2,4-dimethoxy-phenyl)-thioureido]-2-cyano-phenyl}-2-fluoro-benzamide] | > 10 | > 10 | 0 | > 10 | – | – | –
COc1cc(OC)c(NC(=S)Nc2cc(OC)c(NC(=O)c3ccccc3F)cc2C)cc1Cl [Example 286, N-{4-[3-(5-Chloro-2,4-dimethoxy-phenyl)-thioureido]-2-methoxy-5-methyl-phenyl}-2-fluoro-benzamide] | 2 (≈ 3.97 µM) | 40 (≈ 79.4 µM) | 5 | > 10 | – | – | –
COc1cc(OC)c(NC(=S)Nc2ccc(NC(=O)c3ccccc3F)cc2C)cc1Cl [Example 295, N-{4-[3-(5-Chloro-2,4-dimethoxy-phenyl)-thioureido]-3-methyl-phenyl}-2-fluoro-benzamide] | 0.15 (≈ 0.316 µM) | > 10 | 20 | > 10 | – | – | –
COc1cc(OC)c(NC(=S)Nc2ccc(NC(=O)c3ccccc3F)c(C(=O)Nc3ccccc3)c2)cc1Cl [Example 301, 5-[[[(5-Chloro-2,4-dimethoxyphenyl)amino]thioxomethyl]amino]-2-[(2-fluorobenzoyl)amino]-N-phenyl-benzamide] | 10 (≈ 17.3 µM) | > 10 | 10 | > 10 | – | – | –
COc1cc(OC)c(NC(=S)Nc2ccc(NC(=O)c3ccccc3F)c(OC)c2)cc1Cl [Example 303, N-{4-[3-(5-Chloro-2,4-dimethoxy-phenyl)-thioureido]-2-methoxy-phenyl}-2-fluoro-benzamide] | > 10 | > 10 | 15 | > 10 | – | – | –
COc1cc(OC)c(NC(=S)Nc2ccc(NC(=O)c3ccccc3F)c(C)c2)cc1Cl [Example 310, N-{4-[3-(5-Chloro-2,4-dimethoxy-phenyl)-thioureido]-2-methyl-phenyl}-2-fluoro-benzamide] | 2 (≈ 4.22 µM) | > 10 | 40 | > 10 | – | – | –
COc1cc(OC)c(NC(=S)Nc2ccc(NC(=O)c3ccccc3F)c3ccccc23)cc1Cl [Example 325, N-{4-[3-(5-Chloro-2,4-dimethoxy-phenyl)-thioureido]-naphthalen-1-yl}-2-fluoro-benzamide] | 1 (≈ 1.96 µM) | > 10 | 33 | > 10 | – | – | –
COc1cc(OC)c(NC(=S)Nc2cc(C)c(NC(=O)c3ccccc3F)cc2Cl)cc1Cl [Example 327, N-{5-Chloro-4-[3-(5-chloro-2,4-dimethoxy-phenyl)-thioureido]-2-methyl-phenyl}-2-fluoro-benzamide] | > 10 | > 10 | 42 | > 10 | – | – | –
COc1cc(OC)c(NC(=S)Nc2ccc(NC(=O)c3ccccc3F)c(C(=O)O)c2)cc1Cl [Example 338, 5-[3-(5-Chloro-2,4-dimethoxy-phenyl)-thioureido]-2-(2-fluoro-benzoylamino)-benzoic acid] | – | 35 (≈ 69.5 µM) | – | – | > 50 | 13 | > 10
COc1cc(OC)c(NC(=S)Nc2ccc(NC(=O)c3c(F)cccc3F)cc2C)cc1Cl [Example 347, N-{4-[3-(5-Chloro-2,4-dimethoxy-phenyl)-thioureido]-3-methyl-phenyl}-2,6-difluoro-benzamide] | 0.06 (≈ 0.122 µM) | 10 (≈ 20.3 µM) | 34 | > 10 | – | – | –
COc1cc(OC)c(NC(=S)Nc2ccc(NC(=O)c3ccccc3F)cc2C(F)(F)F)cc1Cl [Example 359, N-{4-[3-(5-Chloro-2,4-dimethoxy-phenyl)-thioureido]-3-trifluoromethyl-phenyl}-2-fluoro-benzamide] | 0.6 (≈ 1.14 µM) | > 10 | 59 | > 10 | – | – | –
CC(NC(=S)Nc1ccc(NC(=O)c2ccccc2F)cc1C(F)(F)F)c1ccc(F)cc1 (centres unmarked) [Example 1102, 2-Fluoro-N-(4-{3-[1-(4-fluoro-phenyl)-ethyl]-thioureido}-3-trifluoromethyl-phenyl)-benzamide] | – | 5 (≈ 10.4 µM) | – | > 7.5 | – | – | –
C[C@H](NC(=S)Nc1ccc(NC(=O)c2cc3ccccc3cn2)c(C(F)(F)F)c1)c1ccc(Br)cc1 [Example 1103, Isoquinline-3-carboxylic acid (4-{3-[(1S)-1-(4-bromo-phenyl)-ethyl]-thioureido}-2-trifluoromethyl-phenyl)-amide] | – | 5 (≈ 8.72 µM) | – | 0.12 (≈ 0.209 µM) | – | – | –
C[C@H](NC(=S)Nc1ccc(NC(=O)c2ccccc2F)c(C#N)c1)c1ccc(Br)cc1 [Example 1104, N-(4-{3-[(1S)-1-(4-Bromo-phenyl)-ethyl]-thioureido}-2-cyano-phenyl)-2-fluoro-benzamide] | – | > 10 | – | 0.09 (≈ 0.181 µM) | – | – | –
C[C@@H](NC(=S)Nc1ccc(NC(=O)c2ccccc2F)c(C#N)c1)c1ccc(Br)cc1 [Example 1105, N-(4-{3-[(1R)-1-(4-Bromo-phenyl)-ethyl]-thioureido}-2-cyano-phenyl)-2-fluoro-benzamide] | – | 1.1 (≈ 2.21 µM) | – | > 7.5 | – | – | –
C[C@H](NC(=O)Nc1ccc(NC(=O)c2ccccc2F)c(C#N)c1)c1ccc(F)cc1 [Example 1106, N-{2-cyano-4-[({[(1S)-1-(4-fluorophenyl)ethyl]amino}carbonyl)amino]phenyl}-2-fluorobenzamide] | – | > 10 | – | 0.014 (≈ 0.0333 µM) | – | – | –
Cc1cc(NC(=O)c2ccccc2F)ccc1NC(=O)N[C@H](C)c1ccc(F)cc1 [Example 1107, 2-fluoro-N-{4-[({[(1R)-1-(4-fluorophenyl)ethyl]amino}carbonyl)amino]-3-methylphenyl}benzamide] | – | > 10 | – | 0.04 (≈ 0.0977 µM) | – | – | –
C[C@H](NC(=S)Nc1ccc(NC(=O)c2ccccc2F)c(C#N)c1)c1ccc(F)cc1 [Example 1108, N-{4-[({[(1S)-1-(4-fluorophenyl)ethyl]amino}carbothioyl)amino]-2-cyanophenyl)-2-fluorobenzamide] | – | > 10 | – | 0.03 (≈ 0.0687 µM) | – | – | –
C[C@H](NC(=S)Nc1ccc(NC(=O)c2ccccc2F)c(C#N)c1)c1ccc(Cl)cc1 [Example 1109, N-{4-[({[(1S)-1-(4-chlorophenyl)ethyl]amino}carbothioyl)amino]-2-cyanophenyl}-2-fluorobenzamide] | – | > 10 | – | 0.07 (≈ 0.155 µM) | – | – | –
